Source: ChEMBL document CHEMBL4190376, “Mapping the Efficiency and Physicochemical Trajectories of Successful Optimizations” (J Med Chem, 2018)
In brackets after ≈: the same amount, converted by molar mass. Blank lines part the entries; values can stand above or below the molecule they belong to.

Legend:
[1] = Lipophilicity, log D of the compound at pH 7.4 by chromatographic method; type: physicochemical; conditions: buffer
physchem = conditions: aqueous
[2] = Oral bioavailability in human; type: ADME, organism-based; conditions: in vivo
[3] = Solubility of the compound in pH 7.4 solution; type: physicochemical
[4] = Solubility of the compound in FaSSIF; type: physicochemical
[5] = Ratio of drug level in rat liver to plasma; type: ADME
[6] = Oral bioavailability in rat; type: ADME, organism-based; conditions: in vivo

Compound: C[C@@H]1CCO[C@H]2Cn3cc(C(=O)NCc4ccc(F)cc4F)c(=O)c(O)c3C(=O)N12 [DOLUTEGRAVIR]
chromatographic logD [1]: 3.7

Compound: CCC[C@H](NC(=O)[C@@H]1[C@H]2CCC[C@H]2CN1C(=O)[C@@H](NC(=O)[C@@H](NC(=O)c1cnccn1)C1CCCCC1)C(C)(C)C)C(=O)C(=O)NC1CC1
solubility (physchem): 4.7 µg/mL (≈ 6.91 µM)

Compound: Cc1nnc(C(C)C)n1C1C[C@@H]2CC[C@@H](C1)N2CC[C@H](NC(=O)C1CCC(F)(F)CC1)c1ccccc1 (some centres undefined)
bioavailability [2]: 23%

Compound: Cc1nnc(C(=O)NC(C)(C)c2nc(C(=O)NCc3ccc(F)cc3)c(O)c(=O)n2C)o1
chromatographic logD [1]: 3.3

Next, values leading:

chromatographic logD [1]: 6.4
Compound: COc1cc2c(cc1Cc1cccc(Cl)c1F)c(=O)c(C(=O)O)cn2[C@H](CO)C(C)C

solubility [3]: 0.4 µg/mL (≈ 0.461 µM)
solubility [4]: 11 µg/mL (≈ 12.7 µM)
Compound: CC1(C)CCC(CN2CCN(c3ccc(C(=O)NS(=O)(=O)c4ccc(NCC5CCOCC5)c([N+](=O)[O-])c4)c(Oc4cnc5[nH]ccc5c4)c3)CC2)=C(c2ccc(Cl)cc2)C1 [VENETOCLAX]

Kp [5]: 5
bioavailability [6]: 50%
Compound: COC(=O)N[C@H](C(=O)N1CCC[C@H]1c1nc(-c2ccc(-c3ccc(-c4c[nH]c([C@@H]5CCCN5C(=O)[C@@H](NC(=O)OC)C(C)C)n4)cc3)cc2)c[nH]1)C(C)C
